Columns and labels:
Format in all cases: cell-based
[1] = test system: MDA-MB-231 cells modified with CRISPR and a control guide RNA; assay: Global proteomics analysis via LC-MS/MS
Description: RiboTAC 7 was then assessed for its ability to affect protein levels by deactivation of a miR-21-mediated cancer circuit, i.e., derepression of PDCD4. […] Proteome-wide analysis was also completed to study the effects of 7 and a locked nucleic acid (LNA) oligonucleotide that targets miR-21-5p on the proteome. The concentrations tested of both provided similar activity (5 nM of 7 and 100 nM of the LNA), as assessed by their effect on PDCD4 levels, ˜40% enhancement. […] Neither modality affected proteins that are direct targets of miRNA let-7b-5p, further supporting that RiboTAC 7 is selectively deactivating a miR-21-mediated cancer circuit in cells (FIG. 11C-11D).
Global proteomics analysis via LC-MS/MS. MDA-MB-231 cells modified with CRISPR and a control guide RNA were treated as described in “Cell Culture.” After treatment, the medium was removed, and the cells were washed with 1×DPBS. After washing, the cells were scraped from the culture plates, and the resulting suspension was centrifuged. Cell pellets were resuspended in 1×DPBS, and protein concentration was determined using a Pierce Micro BCA Protein Assay Kit (ThermoScientific). Urea (9 M in 100 mM NH4HCO3, pH 8) was added to a final concentration of 6 M to 30 μg lysate (15 μL prepared in 1×DPBS). […] Peptides were desalted over a self-packed C18 spin column, dried, and analyzed via LC-MS/MS. […]

miR-21 = assay: Global miRNA profiling in MDA-MB-231 cells; conditions: 377 miRNAs
Description: (§1) Two CRISPR-modified MDA-MB-231 cell lines with either a scrambled control guide RNA (“Control sgRNA”; RNase L is expressed) or with an RNase L-targeting guide RNA (“RNase L-Targeting sgRNA”; RNase L protein abundance is knocked down) were used to complete these studies.
For global miRNA profiling experiments, RT was completed using 2 μg total RNA and a Mir-X miRNA First Strand Synthesis Kit (Takara) in a total volume of 20 μL. The RT reaction was then plated into the wells of a 384-well qPCR plate containing pre-diluted forward and reverse primers for the miRNA of interest. RT-qPCR was performed on a QuantStudio5™ Real-Time PCR Instrument (Applied Biosystems) using Power SYBR Green Master Mix (Applied Biosystems). Data were analyzed using the ΔΔCt method,^11 followed by calculation of log 2 fold changes and −log 10 p-values. The software Perseus was used to calculate the false discovery rate (FDR) of 1% with a group variance of S0(0.1).

mature and pre-miR-21 = assay: RT-qPCR in RNase L-Targeting sgRNA (knock-down) MDA-MB-231 cells; conditions: RNase L knocked down by CRISPR
Excerpt: as §1
Generation of the RNase L Knockdown MDA-MB-231 Cell Line. RNase L knockdown and control MDA-MB-231 cell lines were generated by CRISPR as previously described.^1 Briefly, lentiviral constructs containing Cas9 and gRNAs against RNASEL or a negative control were purchased from Transomic Technologies, Inc. [catalog #TEVH-1249025-pCLIP-ALL-hCMVPuro (KD+) and TELA1015 (KD−)] and packaged by transfecting HEK293T cells (ATCC, catalog #CRL-11268) using Lipofectamine 2000 transfection reagent (Invitrogen; catalog #11668500) and Cellecta packaging mix (Cellecta, catalog #CPCP-K2A) in Opti-MEM (Gibco, catalog #31985070). Virus supernatants were harvested 72 h post-transfection and filtered through a 0.45 μm PES filter (mdi Membrane Technologies Inc., catalog #SYPL0602MNXX204). […]
RNA Isolation and Quantitative Real-Time Polymerase Chain Reaction (RT-qPCR). […] RT-qPCR was performed on a QuantStudio5™ Real-Time PCR Instrument (Applied Biosystems) using Power SYBR Green Master Mix (Applied Biosystems), and the resulting data were analyzed using the ΔΔCt method.

MDA-MB-231 cells = assay: Boyden chamber invasion assay, MDA-MB-231; conditions: 5 μM
Description: The effect of the RiboTAC on a miR-21-associated invasive phenotype was next assessed. Treatment with 5 μM of 7 reduced the invasiveness of MDA-MB-231 cells, by ˜30% (p<0.05) (FIG. 4E-F). […] While forced expression of a mutant pre-miR-21 in which the Dovitinib-binding site is mutated also produced an invasive phenotype, the cells were insensitive to treatment with 7 (FIG. 12).
Boyden Chamber Invasion Assay. Hanging cell culture inserts (for 24-well plates, 8.0 μm) were pre-coated with 0.3 mg/mL Matrigel (Corning, 356234). MDA-MB-231 cells (75,000 per insert) were then seeded into the hanging inserts in serum free growth medium, with or without compound (0.1% final DMSO concentration). The inserts were then placed into 24-well plates containing complete. After 16-24 h, the medium was removed, and the hanging inserts were washed with 1×DPBS. Cells were fixed for 20 min at room temperature with 4% (w/v) paraformaldehyde in 1×DPBS. The inserts were washed twice with 1×DPBS and then stained with 0.1% (w/v) crystal violet in 20% methanol (v/v) for 20 min. The inserts were then washed twice with Nanopure water and once with 1×DPBS. Cells on the surface of the Matrigel (noninvasive) were removed with cotton swabs and invading cells were imaged under a Leica DMI3000 B […] fluorescent microscope (the number of invasive cells in 4 fields of view per sample).

`CNC(=O)[C@H](c1ccccc1)N(C)Cc1ccc(-c2cccc(-c3sccc3NC(=O)CCOCCOCCOCCC(=O)NCCN3CCN(c4ccc5nc(-c6c(N)c7c(F)cccc7[nH]c6=O)[nH]c5c4)CC3)c2)cc1` [RiboTAC 7, (S)—N-(2-(4-(2-(4-amino-5-fluoro-2-oxo-1,2-dihydroquinolin-3-yl)-1H-benzo[d]imidazol-6-yl)piperazin-1-yl)ethyl)-3-(2-(2-(3-((2-(4′-((methyl(2-(methylamino)-2-oxo-1-phenylethyl)amino)methyl)-[1,1′-biphenyl]-3-yl)thiophen-3-yl)amino)-3-oxopropoxy)ethoxy)ethoxy)propanamide] was tested, and the “abundance of miR-21-repressed proteins (cumulative distribution analysis)” value ([1]; proteins encoded by mRNAs with a miR-21-5p binding site in 3′ UTR) was “statistically significant increase”, the “proteins affected of the 3176 proteins detected” value ([1]; proteome-wide, 7 and LNA at concentrations of similar activity) was 0.6% and the miRNA profiling selectivity (miR-21) was “selectively down-regulated miR-21 across the transcriptome”. The “effect on mature and pre-miR-21 levels” value (mature and pre-miR-21) was “inactive” and the reduction of invasiveness (MDA-MB-231 cells) was ~30%.

Reference: patent US20260167614A1, “IDENTIFICATION OF SMALL MOLECULES THAT RECRUIT AND ACTIVATE RNASE L” (UNIVERSITY OF FLORIDA RESEARCH FOUNDATION, INCORPORATED, priority 2022, published 2026)
